pIC50: −log10 of the molar value. Where two headings read alike, the source gives them in different places.
Tests used:
UM-UC-9 engineered cells = assay: Cell proliferation / short-term viability assay, CellTiter-Glo 144 h; format: cell-based, human; details: read-out: CTGlo 144 h UMUC9.5, G150
Method in brief: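 Viability read by CellTiter-Glo 2.0 luminescence at day 7 versus DMSO-vehicle wells and a T0 plate measured on day 0. Cells: UM-UC-9 engineered assay-ready stocks, 500 cells/well in high-glucose DMEM with 10% FBS, 37° C, 5% CO2.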

His6-TEV-PPARγ-(234-505) = biological target: T1, His6-TEV-PPARγ-(234-505) (Homo sapiens, UniProt P37231); assay: TR-FRET Assay to Measure Co-R Peptide Recruitment to PPARγ; format: biochemical; details: Co-R peptide (SMRT-ID2) recruitment; top final concentration 20 μM; read-out: TR-FRET i-Ag; AC50
T1 construct: The His6-TEV-PPARγ-(234-505) protein for assay was expressed and purified; TEV cleavage site (N); made in house
T1 sequence (P37231 234-505): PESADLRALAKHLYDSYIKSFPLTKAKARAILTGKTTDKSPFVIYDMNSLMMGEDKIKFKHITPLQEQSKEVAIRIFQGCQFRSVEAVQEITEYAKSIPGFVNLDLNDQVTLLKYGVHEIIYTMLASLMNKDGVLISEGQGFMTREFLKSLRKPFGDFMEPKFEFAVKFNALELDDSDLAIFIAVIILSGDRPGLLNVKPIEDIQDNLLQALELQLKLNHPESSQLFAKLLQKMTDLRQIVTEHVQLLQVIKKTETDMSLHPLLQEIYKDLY
Method in brief: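 Corepressor recruitment is measured by adding terbium-labeled anti-His antibody and FITC SMRT-ID2 peptide, at 5 and 200 nM final, after a 20-minute room-temperature protein–compound incubation. After one further hour, signal is converted to percent response between DMSO and 500 nM T0070907 wells.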

`COc1cc(-c2cc(C(=O)N3CCC(C(=O)NC4CCN(c5cnnc(C)c5)C4)CC34CC4)n[nH]2)c(F)cn1` (mixture of isomers) [Example 452, (S)-4-(5-(5-fluoro-2-methoxypyridin-4-yl)-1H-pyrazole-3-carbonyl)-N—((S)-1-(6-methylpyridazin-4-yl)pyrrolidin-3-yl)-4-azaspiro[2.5]octane-7-carboxamide and ('S)-4-(5-(5-fluoro-2-methoxypyridin-4-yl)-1H-pyrazole-3-carbonyl)-N—((R)-1-(6-methylpyridazin-4-yl)pyrrolidin-3-yl)-4-azaspiro[2.5]octane-7-carboxamide] gave a pIC50 (UM-UC-9 engineered cells) of 5.62 and an AC50 (His6-TEV-PPARγ-(234-505)) of 33.4 nM.
`COc1cc(-c2cc(C(=O)N3CCC(C(=O)NC4CCN(c5cnc(C)nc5)C4)CC34CC4)n[nH]2)c(F)cn1` (mixture of isomers) [Example 453, (S)-4-(5-(5-fluoro-2-methoxypyridin-4-yl)-1H-pyrazole-3-carbonyl)-N—((S)-1-(2-methylpyrimidin-5-yl)pyrrolidin-3-yl)-4-azaspiro[2.5]octane-7-carboxamide and (S)-4-(5-(5-fluoro-2-methoxypyridin-4-yl)-1H-pyrazole-3-carbonyl)-N—((R)-1-(2-methylpyrimidin-5-yl)pyrrolidin-3-yl)-4-azaspiro[2.5]octane-7-carboxamide] was tested, and the pIC50 (UM-UC-9 engineered cells) was 7.35 and the AC50 (His6-TEV-PPARγ-(234-505)) was 25.6 nM.
`COc1cc(-c2cc(C(=O)N3CCC(C(=O)NC4CCN(CC5(O)COC5)C4)CC34CC4)n[nH]2)c(F)cn1` (mixture of isomers) [Example 454, (S)-4-(5-(5-fluoro-2-methoxypyridin-4-yl)-1H-pyrazole-3-carbonyl)-N—((R)-1-((3-hydroxyoxetan-3-yl)methyl)pyrrolidin-3-yl)-4-azaspiro[2.5]octane-7-carboxamide and (S)-4-(5-(5-fluoro-2-methoxypyridin-4-yl)-1H-pyrazole-3-carbonyl)-N—((S)-1-((3-hydroxyoxetan-3-yl)methyl)pyrrolidin-3-yl)-4-azaspiro[2.5]octane-7-carboxamide] was tested, and the pIC50 (UM-UC-9 engineered cells) was 6.00 and the AC50 (His6-TEV-PPARγ-(234-505)) was 196 nM.
Work on `COc1cc(-c2cc(C(=O)N3CCC(C(=O)NC4CCN(CC(F)(F)CO)C4)CC34CC4)n[nH]2)c(F)cn1` (mixture of isomers) [Example 459, (S)—N—((S)-1-(2,2-difluoro-3-hydroxypropyl)pyrrolidin-3-yl)-4-(5-(5-fluoro-2-methoxypyridin-4-yl)-1H-pyrazole-3-carbonyl)-4-azaspiro[2.5]octane-7-carboxamide and (S)—N—((R)-1-(2,2-difluoro-3-hydroxypropyl)pyrrolidin-3-yl)-4-(5-(5-fluoro-2-methoxypyridin-4-yl)-1H-pyrazole-3-carbonyl)-4-azaspiro[2.5]octane-7-carboxamide] yielded a pIC50 (UM-UC-9 engineered cells) of 6.99 and an AC50 (His6-TEV-PPARγ-(234-505)) of 11.7 nM.
In the case of `COc1cc(-c2cc(C(=O)N3CCC(C(=O)NC4CCN(C5COC56CNC6)C4)CC34CC4)n[nH]2)c(F)cn1` (mixture of isomers) [Example 461], the pIC50 (UM-UC-9 engineered cells) was under 5.00 and the AC50 (His6-TEV-PPARγ-(234-505)) was 440 nM.
In the case of `COc1cc(-c2cc(C(=O)N3CCC(C(=O)NCc4ncc(N5CC6CC5CN6)cc4Cl)CC34CC4)n[nH]2)c(F)cn1` (mixture of isomers) [Example 462, (S)—N-((5-((1R,4R)-2,5-diazabicyclo[2.2.1]heptan-2-yl)-3-chloropyridin-2-yl)methyl)-4-(3-(5-fluoro-2-methoxypyridin-4-yl)-1H-pyrazole-5-carbonyl)-4-azaspiro[2.5]octane-7-carboxamide and (S)—N-((5-((1S,4S)-2,5-diazabicyclo[2.2.1]heptan-2-yl)-3-chloropyridin-2-yl)methyl)-4-(3-(5-fluoro-2-methoxypyridin-4-yl)-1H-pyrazole-5-carbonyl)-4-azaspiro[2.5]octane-7-carboxamide], the pIC50 (UM-UC-9 engineered cells) was 6.29 and the AC50 (His6-TEV-PPARγ-(234-505)) was 14.1 nM.
`COc1cc(-c2cc(C(=O)N3CCC(C(=O)NC4CCN(C5COC56CCC6)C4)CC34CC4)n[nH]2)c(F)cn1` (mixture of isomers) [Example 464] was tested, and the pIC50 (UM-UC-9 engineered cells) was 7.44 and the AC50 (His6-TEV-PPARγ-(234-505)) was 9.3 nM.
`COc1cc(-c2cc(C(=O)N3CCC(C(=O)Nc4cnn5ccc(C6CC6C#N)nc45)CC34CC4)n[nH]2)c(F)cn1` (mixture of isomers) [Example 466, (S)—N-(5-((1S,2S)-2-cyanocyclopropyl)pyrazolo[1,5-a]pyrimidin-3-yl)-4-(5-(5-fluoro-2-methoxypyridin-4-yl)-1H-pyrazole-3-carbonyl)-4-azaspiro[2.5]octane-7-carboxamide and (S)—N-(5-((1R,2R)-2-cyanocyclopropyl)pyrazolo[1,5-a]pyrimidin-3-yl)-4-(5-(5-fluoro-2-methoxypyridin-4-yl)-1H-pyrazole-3-carbonyl)-4-azaspiro[2.5]octane-7-carboxamide] showed a pIC50 (UM-UC-9 engineered cells) of 7.29 and an AC50 (His6-TEV-PPARγ-(234-505)) of 5.1 nM.
Work on `COc1cc(-c2cc(C(=O)N3CC[C@H](C(=O)NCc4ncc(N5C[C@H]6C[C@@H]5CN6)cn4)CC34CC4)[nH]n2)c(F)cn1` (mixture of isomers) [Example 467, (S)—N-((5-((1R,4R)-2,5-diazabicyclo[2.2.1]heptan-2-yl)pyrimidin-2-yl)methyl)-4-(3-(5-fluoro-2-methoxypyridin-4-yl)-1H-pyrazole-5-carbonyl)-4-azaspiro[2.5]octane-7-carboxamide and (S)—N-((5-((1S,4S)-2,5-diazabicyclo[2.2.1]heptan-2-yl)pyrimidin-2-yl)methyl)-4-(3-(5-fluoro-2-methoxypyridin-4-yl)-1H-pyrazole-5-carbonyl)-4-azaspiro[2.5]octane-7-carboxamide] yielded a pIC50 (UM-UC-9 engineered cells; Homo sapiens, UM-UC-9, 144 h) of under 5.00 and an AC50 (His6-TEV-PPARγ-(234-505)) of 951 nM.
For `COc1cc(-c2cc(C(=O)N3CCC(C(=O)NCc4ncc(N5CCNC6CC65)cn4)CC34CC4)n[nH]2)c(F)cn1` (mixture of isomers) [Example 469, (S)—N-((5-((1S,6R)-2,5-diazabicyclo[4.1.0]heptan-2-yl)pyrimidin-2-yl)methyl)-4-(3-(5-fluoro-2-methoxypyridin-4-yl)-1H-pyrazole-5-carbonyl)-4-azaspiro[2.5]octane-7-carboxamide and (S)—N-((5-((1R,6S)-2,5-diazabicyclo[4.1.0]heptan-2-yl)pyrimidin-2-yl)methyl)-4-(3-(5-fluoro-2-methoxypyridin-4-yl)-1H-pyrazole-5-carbonyl)-4-azaspiro[2.5]octane-7-carboxamide], the pIC50 (UM-UC-9 engineered cells) was 5.04 and the AC50 (His6-TEV-PPARγ-(234-505)) was 78.5 nM.
`COc1cc(-c2cc(C(=O)N3CCC(C(=O)NC4CN(CC5(O)CC5)CC4(F)F)CC34CC4)n[nH]2)c(F)cn1` (mixture of isomers) [Example 470, (S)—N—((R)-4,4-difluoro-1-((1-hydroxycyclopropyl)methyl)pyrrolidin-3-yl)-4-(3-(5-fluoro-2-methoxypyridin-4-yl)-1-pyrazole-5-carbonyl)-4-azaspiro[2.5]octane-7-carboxamide and (S)—N—((S)-4,4-difluoro-1-((1-hydroxycyclopropyl)methyl)pyrrolidin-3-yl)-4-(3-(5-fluoro-2-methoxypyridin-4-yl)-1H-pyrazole-5-carbonyl)-4-azaspiro[2.5]octane-7-carboxamide] gave a pIC50 (UM-UC-9 engineered cells) of 6.05 and an AC50 (His6-TEV-PPARγ-(234-505)) of 112 nM.
Work on `COc1cc(-c2cc(C(=O)N3CCC(C(=O)NC4CCN(c5ncc(C#N)cn5)C4)CC34CC4)n[nH]2)c(F)cn1` (mixture of isomers) [Example 472, (S)—N—((R)-1-(5-cyanopyrimidin-2-yl)pyrrolidin-3-yl)-4-(5-(5-fluoro-2-methoxypyridin-4-yl)-1H-pyrazole-3-carbonyl)-4-azaspiro[2.5]octane-7-carboxamide and (S)—N—((S)-1-(5-cyanopyrimidin-2-yl)pyrrolidin-3-yl)-4-(5-(5-fluoro-2-methoxypyridin-4-yl)-1H-pyrazole-3-carbonyl)-4-azaspiro[2.5]octane-7-carboxamide] yielded a pIC50 (UM-UC-9 engineered cells) of 7.62 and an AC50 (His6-TEV-PPARγ-(234-505)) of 2.9 nM.
`COc1cc(-c2cc(C(=O)N3CCC(C(=O)NC4CCC(O)(C(F)(F)F)C(O)C4)CC34CC4)n[nH]2)c(F)cn1` (mixture of isomers) [Example 474-A] was tested, and the pIC50 (UM-UC-9 engineered cells) was 5.21 and the AC50 (His6-TEV-PPARγ-(234-505)) was 336 nM.
For `COc1cc(-c2cc(C(=O)N3CCC(C(=O)NC4CCC(O)(C(F)(F)F)C(O)C4)CC34CC4)n[nH]2)c(F)cn1` (mixture of isomers) [Example 474-B], the pIC50 (UM-UC-9 engineered cells) was 7.30 and the AC50 (His6-TEV-PPARγ-(234-505)) was 4.6 nM.
`CC(O)c1cc(-c2cc(C(=O)N3CCC(C(=O)NCc4ncc(F)cc4Cl)CC34CC4)n[nH]2)c(F)cn1` (mixture of isomers) [Example 478] showed a pIC50 (UM-UC-9 engineered cells) of 6.38 and an AC50 (His6-TEV-PPARγ-(234-505)) of 38.8 nM.
`COc1cc(-c2cc(C(=O)N3CCC(C(=O)NC4CCCn5ccnc54)CC34CC4)n[nH]2)c(F)cn1` (mixture of isomers) [Example 479, (S)-4-(5-(5-fluoro-2-methoxypyridin-4-yl)-1H-pyrazole-3-carbonyl)-N—((R)-5,6,7,8-tetrahydroimidazo[1,2-a]pyridin-8-yl)-4-azaspiro[2.5]octane-7-carboxamide and (S)-4-(5-(5-fluoro-2-methoxypyridin-4-yl)-1H-pyrazole-3-carbonyl)-N—((S)-5,6,7,8-tetrahydroimidazo[1,2-a]pyridin-8-yl)-4-azaspiro[2.5]octane-7-carboxamide] was tested, and the pIC50 (UM-UC-9 engineered cells) was 5.83 and the AC50 (His6-TEV-PPARγ-(234-505)) was 132 nM.

— patent US12606541B2, “PPARg modulators and methods of use” (Eisai R&D Management Co., Ltd., priority 2020, dated 2026)
